Laboratory results taken from ChEMBL document CHEMBL1139983, “The anti-androgen effect of ganoderol B isolated from the fruiting body of Ganoderma lucidum” (Bioorg Med Chem, 2007).
Calls of active or inactive are those of the source. The calls are words filed in the database; no cut-off is given here.

How the values were obtained:
[1] = Inhibition of steroid 5-alpha-reductase activity in Sprague-Dawley rat liver microsomes after 10 mins; design: species or system Microsome
[2] = species on record: Rattus norvegicus; assay: Inhibition of steroid 5-alpha-reductase activity in Sprague-Dawley rat liver microsomes at 113 uM after 10 mins; conditions: Microsome
[3] = test system: Rattus norvegicus; assay: Inhibition of testosterone induced ventral prostate growth in Sprague-Dawley rat at 0.1 mg/kg/day, po after 7 days; type: functional; conditions: Prostate gland, 168 h
[4] = test system: LNCaP; assay: Growth inhibition of human LNCaP cells in presence of testosterone after 3 days; type: functional, cell-based
[5] = test system: LNCaP; assay: Growth inhibition of human LNCaP cells after 3 days; type: functional, cell-based
[6] = molecular target: T1, Androgen receptor (Homo sapiens) (UniProt P10275); assay: Displacement of dihydrotestosterone from human recombinant AR ligand binding domain at 15 uM by fluorescence polarization method
T1 sequence (whole entry): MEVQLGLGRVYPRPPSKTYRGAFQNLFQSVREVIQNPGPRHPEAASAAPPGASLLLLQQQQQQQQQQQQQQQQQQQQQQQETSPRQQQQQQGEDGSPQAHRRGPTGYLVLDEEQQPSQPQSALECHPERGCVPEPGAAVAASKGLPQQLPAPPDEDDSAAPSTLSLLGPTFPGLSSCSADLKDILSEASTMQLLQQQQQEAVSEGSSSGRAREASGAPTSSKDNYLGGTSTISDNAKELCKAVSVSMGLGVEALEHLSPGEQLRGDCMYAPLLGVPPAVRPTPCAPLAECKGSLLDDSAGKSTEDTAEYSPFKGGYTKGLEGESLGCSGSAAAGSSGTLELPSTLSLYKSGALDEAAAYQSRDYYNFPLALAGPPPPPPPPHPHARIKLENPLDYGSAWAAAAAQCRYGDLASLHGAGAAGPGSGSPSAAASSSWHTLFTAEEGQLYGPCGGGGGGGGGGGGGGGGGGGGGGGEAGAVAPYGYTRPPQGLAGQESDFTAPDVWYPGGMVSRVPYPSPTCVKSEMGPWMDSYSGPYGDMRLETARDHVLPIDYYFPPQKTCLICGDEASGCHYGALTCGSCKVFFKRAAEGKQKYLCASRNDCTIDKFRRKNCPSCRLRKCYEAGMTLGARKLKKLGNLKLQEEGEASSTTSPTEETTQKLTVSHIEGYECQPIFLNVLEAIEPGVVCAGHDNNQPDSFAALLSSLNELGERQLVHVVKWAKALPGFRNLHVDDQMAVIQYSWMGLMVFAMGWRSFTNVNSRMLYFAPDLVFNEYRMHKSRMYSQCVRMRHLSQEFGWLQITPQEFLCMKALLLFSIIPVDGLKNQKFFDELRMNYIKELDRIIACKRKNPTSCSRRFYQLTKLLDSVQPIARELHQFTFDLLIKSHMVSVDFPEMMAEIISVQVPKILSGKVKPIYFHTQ

[7] = test system: LNCaP; assay: Growth inhibition of human LNCaP cells in presence of dihydrotestosterone after 3 days; type: functional, cell-based
[8] = test system: Rattus norvegicus; assay: Inhibition of testosterone induced ventral prostate growth in Sprague-Dawley rat at 0.001 mg/kg/day, po after 7 days; type: functional, Prostate gland; design: scale not given: the % may be the effect or the level left

Structure (SMILES)	IC50 [1] [µM]	inhibition [2] [%]	inhibition in vivo at 0.1 mg/kg/day [3] [%]	Activity [4]	Activity [5]	Activity [6] [%]	Activity [7]	Activity [8] [%]
CC(C)(C)NC(=O)[C@H]1CC[C@H]2[C@@H]3CC[C@H]4NC(=O)C=C[C@]4(C)[C@H]3CC[C@]12C [FINASTERIDE]	0.73							
C/C(=C\CC[C@@H](C)[C@H]1CC[C@@]2(C)C3=CC[C@H]4C(C)(C)[C@@H](O)CC[C@]4(C)C3=CC[C@]12C)CO [GANODEROL B]		37	49	Dose-dependent effect	inactive	50	Dose-dependent effect	31
